# Laboratory results: patent US4798897A, “Isoquinoline derivatives” (Asahi Kasei Kogyo Kabushiki Kaisha, priority 1987, dated 1989)
# Tested on: mesenteric artery
# Test: Relaxation of mesenteric artery (KCl-contracted)
# Settings: Oryctolagus cuniculus; rabbit mesenteric artery contracted with 15 to 20 mM KCl; read-out: ED50 (concentration attaining 50% of complete relaxation)
# Experimental: 1. Relaxation of Mesenteric Artery
# A rabbit of Japanese local variety weighing about 3 kg was bled to death. Then, the abdomen of the rabbit was dissected to locate a mesenteric artery. […] Thus, shrinking and relaxation of the artery could be measured as a load on the transducer. To the organ bath, KCl was added so that the KCl concentration became 15 to 20 mM, causing the artery to shrink. Then, the compounds of the present invention were added to the organ bath to observe relaxation of the artery.
# The effect of the compounds of the present invention on relaxation of mesenteric artery was examined according to the method as mentioned hereinbefore.
row,Compound,EC50 [µM]
1,"CCN(CCCCCN1CCCCC1)S(=O)(=O)c1cccc2cnccc12 [Compound (50), N-ethyl-N-(5-piperidinopentyl)-5-isoquinolinesulfonamide]",26
2,"NC1CCN(S(=O)(=O)c2cccc3c(Cl)nccc23)C1 (centres unmarked) [Compound (101), 1-(1-chloro-5-isoquinolinesulfonyl)-3-aminopyrrolidine]",17
3,"CN(C)C1CCCN(S(=O)(=O)c2cccc3c(Cl)nccc23)C1 (centres unmarked) [Compound (99), 1-(1-chloro-5-isoquinolinesulfonyl)-3-dimethylaminopiperidine]",21
4,"O=S(=O)(c1cccc2cnccc12)N1CCCC(Nc2ccccc2)C1 (centres unmarked) [Compound (68), 1-(5-isoquinolinesulfonyl)-3-phenylaminopiperidine]",16
5,"CCCCCCN(C(CN)CCCC)S(=O)(=O)c1cccc2cnccc12 (centres unmarked) [Compound (19), N-(1-aminomethylpentyl)-N-hexyl-5-isoquinolinesulfonamide]",16
6,"CCCNCC(C)CCCCN(C)S(=O)(=O)c1cccc2cnccc12 (centres unmarked) [Compound (41), N-methyl-N-(6-propylamino-5-methylhexyl)-5-isoquinolinesulfonamide]",17
7,"CCCCCCN(CCN(C)C)S(=O)(=O)c1cccc2cnccc12 [Compound (43), N-(2-dimethylaminoethyl)-N-hexyl-5-isoquinolinesulfonamide]",20
8,"O=S(=O)(c1cccc2c(O)nccc12)N1CCCC(NCc2ccccc2)C1 (centres unmarked) [Compound (86), 1-(1-hydroxy-5-isoquinolinesulfonyl)-3-benzylaminopiperidine]",17
9,"CCCCCCN(CCC(C)CN)S(=O)(=O)c1cccc2cnccc12 (centres unmarked) [Compound (23), N-(4-amino-3-methylbutyl)-N-hexyl-5-isoquinolinesulfonamide]",18
10,"CCCCCCN(C)C1CCN(S(=O)(=O)c2cccc3cnccc23)CC1 [Compound (59), 1-(5-isoquinolinesulfonyl)-4-(N-hexyl-N-methylamino)piperidine]",21

# Stronger by EC50, values ahead:
row,EC50 [µM],Compound
1,15,"O=S(=O)(c1cccc2cnccc12)N1CCC(NCCc2ccccc2)CC1 [Compound (61), 1-(5-isoquinolinesulfonyl)-4-phenethylaminopiperidine]"
2,13,"CCCCCCN(CCNCCCC)S(=O)(=O)c1cccc2cnccc12 [Compound (27), N-(2-butylaminoethyl)-N-hexyl-5-isoquinolinesulfonamide]"
3,13,"CCCNC1CCN(S(=O)(=O)c2cccc3cnccc23)CC1 [Compound (54), 1-(5-isoquinolinesulfonyl)-4-propylaminopiperidine]"
4,13,"CCCNC1CCCN(S(=O)(=O)c2cccc3c(O)nccc23)C1 (centres unmarked) [Compound (85), 1-(1-hydroxy-5-isoquinolinesulfonyl)-3-propylaminopiperidine]"
5,12,"O=S(=O)(c1cccc2c(O)nccc12)N1CCCC(NCCc2ccccc2)C1 (centres unmarked) [Compound (89), 1-(1-hydroxy-5-isoquinolinesulfonyl)-3-phenethylaminopiperidine]"
6,12,"NC1CCN(S(=O)(=O)c2cccc3cnccc23)C1 (centres unmarked) [Compound (78), 1-(5-isoquinolinesulfonyl)-3-aminopyrrolidine]"
7,9,"CCCCCCN(CCCCCN)S(=O)(=O)c1cccc2cnccc12 [Compound (9), N-(5-aminopentyl)-N-hexyl-5-isoquinolinesulfonamide]"
8,8,"CCCCCCN(CCNCc1ccccc1)S(=O)(=O)c1cccc2cnccc12 [Compound (32), N-(2-benzylamioethyl)-N-hexyl-5-isoquinolinesulfonamide]"
9,6,"CCCCCCNC(C)CN(CCCCCC)S(=O)(=O)c1cccc2cnccc12 (centres unmarked) [Compound (37), N-(2-hexylaminopropyl)-N-hexyl-5-isoquinolinesulfonamide]"
10,5,"CCCCCCN(CCCCN)S(=O)(=O)c1cccc2cnccc12 [Compound (8), N-(4-aminobutyl)-N-hexyl-5-isoquinolinesulfonamide]"
11,2,"CCCCCCN(CCCN)S(=O)(=O)c1cccc2cnccc12 [Compound (7), N-(3-aminopropyl)-N-hexyl-5-isoquinolinesulfonamide]"

# Tested on: bronchial tubes
# Test: Inhibition of histamine contraction of bronchial tubes (relaxation of bronchial tubes)
# Settings: Cavia porcellus; guinea pig bronchial tube, 10 μM histamine; Table 16; read-out: ED50 (50% decrease of histamine contraction of bronchial tubes)
# Experimental: 3. Inhibition of Histamine Contraction of Bronchial Tubes (Relaxation of Bronchial Tubes)
# That is, a bronchial tube sample taken from a guinea pig was suspended in the 20-ml bath filled with Krebs-Henseleit nutrient solution and maintained at a temperature of 37° C. To the bath was added histamine so that the histamine concentration became 10 μM, causing the bronchial tube sample to contract. After the contraction became stable, the compounds of the present invention were added cumulatively to the bath to observe relaxation of the bronchial tube sample.
# The effect of the compounds of the present invention on relaxation of bronchial tubes was examined according to the method as mentioned hereinbefore.
row,Compound,EC50 [µM]
1,"CCN(CCCCCN1CCCCC1)S(=O)(=O)c1cccc2cnccc12 [Compound (50), N-ethyl-N-(5-piperidinopentyl)-5-isoquinolinesulfonamide]",26
2,"NC1CCN(S(=O)(=O)c2cccc3c(Cl)nccc23)C1 (centres unmarked) [Compound (101), 1-(1-chloro-5-isoquinolinesulfonyl)-3-aminopyrrolidine]",14
3,"CN(C)C1CCCN(S(=O)(=O)c2cccc3c(Cl)nccc23)C1 (centres unmarked) [Compound (99), 1-(1-chloro-5-isoquinolinesulfonyl)-3-dimethylaminopiperidine]",19
4,"CCCCCCN(C(CN)CCCC)S(=O)(=O)c1cccc2cnccc12 (centres unmarked) [Compound (19), N-(1-aminomethylpentyl)-N-hexyl-5-isoquinolinesulfonamide]",13
5,"CCCNCC(C)CCCCN(C)S(=O)(=O)c1cccc2cnccc12 (centres unmarked) [Compound (41), N-methyl-N-(6-propylamino-5-methylhexyl)-5-isoquinolinesulfonamide]",22
6,"CCCCCCN(CCN(C)C)S(=O)(=O)c1cccc2cnccc12 [Compound (43), N-(2-dimethylaminoethyl)-N-hexyl-5-isoquinolinesulfonamide]",27
7,"O=S(=O)(c1cccc2c(O)nccc12)N1CCCC(NCc2ccccc2)C1 (centres unmarked) [Compound (86), 1-(1-hydroxy-5-isoquinolinesulfonyl)-3-benzylaminopiperidine]",11
8,"CCCCCCN(CCC(C)CN)S(=O)(=O)c1cccc2cnccc12 (centres unmarked) [Compound (23), N-(4-amino-3-methylbutyl)-N-hexyl-5-isoquinolinesulfonamide]",18
9,"CCCCCCN(C)C1CCN(S(=O)(=O)c2cccc3cnccc23)CC1 [Compound (59), 1-(5-isoquinolinesulfonyl)-4-(N-hexyl-N-methylamino)piperidine]",23

# Other lines, results leading:
row,EC50 [µM],Compound
1,15,"O=S(=O)(c1cccc2cnccc12)N1CCC(NCCc2ccccc2)CC1 [Compound (61), 1-(5-isoquinolinesulfonyl)-4-phenethylaminopiperidine]"
2,13,"CCCCCCN(CCNCCCC)S(=O)(=O)c1cccc2cnccc12 [Compound (27), N-(2-butylaminoethyl)-N-hexyl-5-isoquinolinesulfonamide]"
3,14,"CCCNC1CCN(S(=O)(=O)c2cccc3cnccc23)CC1 [Compound (54), 1-(5-isoquinolinesulfonyl)-4-propylaminopiperidine]"
4,11,"CCCNC1CCCN(S(=O)(=O)c2cccc3c(O)nccc23)C1 (centres unmarked) [Compound (85), 1-(1-hydroxy-5-isoquinolinesulfonyl)-3-propylaminopiperidine]"
5,10,"O=S(=O)(c1cccc2c(O)nccc12)N1CCCC(NCCc2ccccc2)C1 (centres unmarked) [Compound (89), 1-(1-hydroxy-5-isoquinolinesulfonyl)-3-phenethylaminopiperidine]"
6,30,"NC1CCN(S(=O)(=O)c2cccc3cnccc23)C1 (centres unmarked) [Compound (78), 1-(5-isoquinolinesulfonyl)-3-aminopyrrolidine]"
7,15,"CCCCCCN(CCCCCN)S(=O)(=O)c1cccc2cnccc12 [Compound (9), N-(5-aminopentyl)-N-hexyl-5-isoquinolinesulfonamide]"
8,17,"CCCCCCN(CCNCc1ccccc1)S(=O)(=O)c1cccc2cnccc12 [Compound (32), N-(2-benzylamioethyl)-N-hexyl-5-isoquinolinesulfonamide]"
9,27,"CCCCCCNC(C)CN(CCCCCC)S(=O)(=O)c1cccc2cnccc12 (centres unmarked) [Compound (37), N-(2-hexylaminopropyl)-N-hexyl-5-isoquinolinesulfonamide]"
10,11,"CCCCCCN(CCCCN)S(=O)(=O)c1cccc2cnccc12 [Compound (8), N-(4-aminobutyl)-N-hexyl-5-isoquinolinesulfonamide]"
11,13,"CCCCCCN(CCCN)S(=O)(=O)c1cccc2cnccc12 [Compound (7), N-(3-aminopropyl)-N-hexyl-5-isoquinolinesulfonamide]"
